Measured values from PubChem BioAssay AID256 (DTP/NCI, 2004).
Values joined by “and” are separate entries in the source; they are usually repeats but may differ in a detail not shown here. Equal entries are not always repeated. Inconclusive results and toxic doses are left out. Rule for the calls: active = survival T/C of 150% or more; inactive = T/C below 125% in these data. Residues, ends and D or L forms follow the SMILES beside them. *: point of attachment. Trt = c1ccc(C(c2ccccc2)(c2ccccc2)*)cc1; Cbz = O=C(OCc1ccccc1)*; Bn = c1ccc(C*)cc1; βAla = NCCC(=O)O

Test system: CD2F1 mice, L1210 leukemia ip, survival T/C
Experiment: NCI In Vivo Anticancer Drug Screen. Data for tumor model L1210 Leukemia (intraperitoneal) in CD2F1 (CDF1) mice
Details: higher = longer survival
Procedure, shortened: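 Activity against a transplanted murine tumor was judged by comparing the compound group with a vehicle group. The outcome in the treated animals was divided by that in the controls.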

[1] = endpoint: mean survival time, dose: 25.0 mg/kg/injection, schedule: Q01DX009 (ip), vehicle: saline with Tween-80
[2] = endpoint: mean survival time, dose: 12.5 mg/kg/injection, schedule: Q01DX009 (ip), vehicle: Klucel (hydroxypropylcellulose) (HPC)
[3] = endpoint: mean survival time, dose: 25.0 mg/kg/injection, schedule: Q01DX009 (ip), vehicle: Klucel (hydroxypropylcellulose) (HPC)
[4] = endpoint: mean survival time, dose: 100.0 mg/kg/injection, schedule: Q01DX009 (ip), vehicle: saline with Tween-80
[5] = endpoint: mean survival time, dose: 200.0 mg/kg/injection, schedule: Q01DX009 (ip), vehicle: saline with Tween-80
[6] = endpoint: mean survival time, dose: 400.0 mg/kg/injection, schedule: Q01DX009 (ip), vehicle: saline with Tween-80
[7] = endpoint: mean survival time, dose: 25.0 mg/kg/injection, schedule: Q04DX003 (ip), vehicle: saline with Tween-80
[8] = endpoint: mean survival time, dose: 50.0 mg/kg/injection, schedule: Q01DX009 (ip), vehicle: saline with Tween-80
[9] = endpoint: mean survival time, dose: 100.0 mg/kg/injection, schedule: Q01DX001 (ip), vehicle: saline with Tween-80
[10] = endpoint: mean survival time, dose: 100.0 mg/kg/injection, schedule: Q04DX002 (ip), vehicle: saline with Tween-80
[11] = endpoint: mean survival time, dose: 100.0 mg/kg/injection, schedule: Q04DX003 (ip), vehicle: saline with Tween-80
[12] = endpoint: mean survival time, dose: 200.0 mg/kg/injection, schedule: Q01DX001 (ip), vehicle: saline with Tween-80
[13] = endpoint: mean survival time, dose: 200.0 mg/kg/injection, schedule: Q04DX002 (ip), vehicle: saline with Tween-80
[14] = endpoint: mean survival time, dose: 200.0 mg/kg/injection, schedule: Q04DX003 (ip), vehicle: saline with Tween-80
[15] = endpoint: mean survival time, dose: 400.0 mg/kg/injection, schedule: Q01DX001 (ip), vehicle: saline with Tween-80
[16] = endpoint: mean survival time, dose: 400.0 mg/kg/injection, schedule: Q04DX002 (ip), vehicle: saline with Tween-80
[17] = endpoint: mean survival time, dose: 75.0 mg/kg/injection, schedule: Q01DX001 (ip), vehicle: other
[18] = endpoint: mean survival time, dose: 150.0 mg/kg/injection, schedule: Q01DX001 (ip), vehicle: other
[19] = endpoint: mean survival time, dose: 300.0 mg/kg/injection, schedule: Q01DX001 (ip), vehicle: other

Measured: T/C

CN(C)N=Nc1ccc(C#N)cc1
inactive: endpoint: mean survival time, dose: 7.37 mg/kg/injection, schedule: Q01DX009 (ip), vehicle: Klucel (hydroxypropylcellulose) (HPC) 100 % of control | endpoint: mean survival time, dose: 14.75 mg/kg/injection, schedule: Q01DX009 (ip), vehicle: Klucel (hydroxypropylcellulose) (HPC) 100 % of control | endpoint: mean survival time, dose: 29.5 mg/kg/injection, schedule: Q01DX009 (ip), vehicle: Klucel (hydroxypropylcellulose) (HPC) 108 % of control | endpoint: mean survival time, dose: 59.0 mg/kg/injection, schedule: Q01DX009 (ip), vehicle: Klucel (hydroxypropylcellulose) (HPC) 108 % of control | endpoint: mean survival time, dose: 118.0 mg/kg/injection, schedule: Q01DX009 (ip), vehicle: Klucel (hydroxypropylcellulose) (HPC) 120 % of control and 107 % of control

C(=C\c1cc[n+](CCc2ccccc2)cc1)/c1ccccc1
inactive: endpoint: mean survival time, dose: 6.25 mg/kg/injection, schedule: Q01DX009 (ip), vehicle: saline with Tween-80 104 % of control | endpoint: mean survival time, dose: 12.5 mg/kg/injection, schedule: Q01DX009 (ip), vehicle: saline with Tween-80 98 % of control | [1] 108 % of control

Cn1ncc(C#N)c1N
inactive: endpoint: mean survival time, dose: 100.0 mg/kg/injection, schedule: Q01DX001 (ip), vehicle: Klucel (hydroxypropylcellulose) (HPC) 117 % of control | endpoint: mean survival time, dose: 200.0 mg/kg/injection, schedule: Q01DX001 (ip), vehicle: Klucel (hydroxypropylcellulose) (HPC) 102 % of control | endpoint: mean survival time, dose: 400.0 mg/kg/injection, schedule: Q01DX001 (ip), vehicle: Klucel (hydroxypropylcellulose) (HPC) 102 % of control

CCCC(=O)c1c(C)cc(C)cc1C
inactive: endpoint: mean survival time, dose: 100.0 mg/kg/injection, schedule: Q04DX003 (ip), vehicle: other 98 % of control | endpoint: mean survival time, dose: 200.0 mg/kg/injection, schedule: Q04DX003 (ip), vehicle: other 104 % of control | endpoint: mean survival time, dose: 400.0 mg/kg/injection, schedule: Q04DX003 (ip), vehicle: other 98 % of control

O=[As](O)(O)Cc1ccccc1
inactive: endpoint: mean survival time, dose: 6.25 mg/kg/injection, schedule: Q01DX009 (ip), vehicle: Klucel (hydroxypropylcellulose) (HPC) 100 % of control | [2] 89 % of control | [3] 93 % of control

CNC(=O)Nc1ccc(S(N)(=O)=O)cc1
inactive: [4] 97 % of control | [5] 91 % of control | [6] 100 % of control

CCOC(=O)c1ccc(NC(=O)Nc2ccc(N(C)C(C)=O)cc2)cc1
inactive: [7] 98 % of control | [8] 87 % of control | endpoint: mean survival time, dose: 50.0 mg/kg/injection, schedule: Q04DX003 (ip), vehicle: saline with Tween-80 96 % of control | [9] 100 % of control | [4] 87 % of control and 101 % of control | [10] 90 % of control and 97 % of control | [11] 94 % of control and 109 % of control | [12] 97 % of control | [5] 90 % of control and 91 % of control | [13] 87 % of control and 91 % of control | [14] 104 % of control | [15] 102 % of control | [16] 88 % of control and 94 % of control

COc1cc2c(cc1OC)C(CC(C)C)=[N+](C)CC2
inactive: [1] 103 % of control | [8] 98 % of control | [4] 109 % of control | [10] 92 % of control

C=C(Br)CNC(=O)OC
inactive: endpoint: mean survival time, dose: 12.5 mg/kg/injection, schedule: Q01DX009 (ip), vehicle: saline 102 % of control | endpoint: mean survival time, dose: 25.0 mg/kg/injection, schedule: Q01DX009 (ip), vehicle: saline 104 % of control | endpoint: mean survival time, dose: 50.0 mg/kg/injection, schedule: Q01DX009 (ip), vehicle: saline 112 % of control | [11] 96 % of control

CCOC(=O)CCC(NC(=O)c1ccc(NCC2CCc3nc(N)[nH]c(=O)c3N2)cc1)C(=O)OCC (stereo unspecified)
inactive: endpoint: median survival time, dose: 10.0 mg/kg/injection, schedule: Q01DX005 (ip), vehicle: distilled water + Tween-80 97 % of control | endpoint: median survival time, dose: 20.0 mg/kg/injection, schedule: Q01DX005 (ip), vehicle: distilled water + Tween-80 102 % of control | endpoint: median survival time, dose: 40.0 mg/kg/injection, schedule: Q01DX005 (ip), vehicle: distilled water + Tween-80 100 % of control | endpoint: median survival time, dose: 80.0 mg/kg/injection, schedule: Q01DX005 (ip), vehicle: distilled water + Tween-80 96 % of control | endpoint: median survival time, dose: 160.0 mg/kg/injection, schedule: Q01DX005 (ip), vehicle: distilled water + Tween-80 100 % of control

O=C1O/C(=C\c2ccccc2)C(O)=C1c1ccccc1
inactive: endpoint: mean survival time, dose: 25.0 mg/kg/injection, schedule: Q01DX001 (ip), vehicle: saline with Tween-80 102 % of control | endpoint: mean survival time, dose: 50.0 mg/kg/injection, schedule: Q01DX001 (ip), vehicle: saline with Tween-80 98 % of control | [9] 102 % of control

COC(=O)C(CSC(c1ccccc1)(c1ccccc1)c1ccccc1)NC(=O)C(CSCc1ccccc1)NC(=O)CCNC(=O)OCc1ccccc1 (stereo unspecified) ({Cbz-βAla}-Cys(Bn)-Cys(Trt)-OMe; configuration not given here)
inactive: endpoint: median survival time, dose: 12.5 mg/kg/injection, schedule: Q01DX009 (ip), vehicle: Klucel (hydroxypropylcellulose) (HPC) 101 % of control | endpoint: median survival time, dose: 25.0 mg/kg/injection, schedule: Q01DX009 (ip), vehicle: Klucel (hydroxypropylcellulose) (HPC) 101 % of control | endpoint: median survival time, dose: 50.0 mg/kg/injection, schedule: Q01DX009 (ip), vehicle: Klucel (hydroxypropylcellulose) (HPC) 101 % of control | endpoint: median survival time, dose: 100.0 mg/kg/injection, schedule: Q01DX009 (ip), vehicle: Klucel (hydroxypropylcellulose) (HPC) 108 % of control | endpoint: median survival time, dose: 200.0 mg/kg/injection, schedule: Q01DX009 (ip), vehicle: Klucel (hydroxypropylcellulose) (HPC) 103 % of control

Cl/C(=N\Nc1ccccc1)c1ccccc1
inactive: [2] 102 % of control | [3] 98 % of control | endpoint: mean survival time, dose: 50.0 mg/kg/injection, schedule: Q01DX009 (ip), vehicle: Klucel (hydroxypropylcellulose) (HPC) 88 % of control

CC(=O)C1=C(O)C(CSCc2ccccc2)N(C)C1=O (stereo unspecified)
inactive: [17] 95 % of control | [18] 92 % of control | [19] 91 % of control

Cc1ccn2c(=O)c(CCBr)c(C)nc2c1
inactive: endpoint: mean survival time, dose: 75.0 mg/kg/injection, schedule: Q01DX001 (ip), vehicle: saline 96 % of control

CC(C)(O)c1cc(Cl)c(C#N)c(Cl)c1
inactive: endpoint: mean survival time, dose: 37.5 mg/kg/injection, schedule: Q04DX002 (ip), vehicle: saline with Tween-80 109 % of control | endpoint: mean survival time, dose: 75.0 mg/kg/injection, schedule: Q04DX002 (ip), vehicle: saline with Tween-80 102 % of control | endpoint: mean survival time, dose: 150.0 mg/kg/injection, schedule: Q04DX002 (ip), vehicle: saline with Tween-80 102 % of control | endpoint: mean survival time, dose: 300.0 mg/kg/injection, schedule: Q04DX002 (ip), vehicle: saline with Tween-80 93 % of control

CN(C)C(=O)Sc1ccc(S(=O)(=O)F)c(Cl)c1Cl
inactive: [10] 100 % of control | [13] 100 % of control | [16] 103 % of control

O=C1C=CC(=O)c2c(Cl)ccc(O)c21
inactive: endpoint: mean survival time, dose: 3.13 mg/kg/injection, schedule: Q04DX002 (ip), vehicle: other 102 % of control | endpoint: mean survival time, dose: 6.25 mg/kg/injection, schedule: Q04DX002 (ip), vehicle: other 102 % of control | endpoint: mean survival time, dose: 12.5 mg/kg/injection, schedule: Q04DX002 (ip), vehicle: other 96 % of control and 102 % of control

C1=CCC(CNc2ncnc3nc[nH]c23)=CC1
inactive: [4] 100 % of control | [11] 98 % of control | [5] 100 % of control | [14] 98 % of control | [6] 88 % of control | endpoint: mean survival time, dose: 400.0 mg/kg/injection, schedule: Q04DX003 (ip), vehicle: saline with Tween-80 104 % of control

CNC(=O)O/N=C1\CCCc2sccc21
inactive: [9] 110 % of control | [12] 110 % of control | [15] 101 % of control

O=c1nc(N2CCOCC2)ccn1C1OC(CO)C(O)C1O (stereo unspecified)
inactive: endpoint: mean survival time, dose: 100.0 mg/kg/injection, schedule: Q01DX005 (ip), vehicle: water 104 % of control | endpoint: mean survival time, dose: 200.0 mg/kg/injection, schedule: Q01DX005 (ip), vehicle: water 101 % of control | endpoint: mean survival time, dose: 400.0 mg/kg/injection, schedule: Q01DX005 (ip), vehicle: water 107 % of control

O=C(Cc1ccccc1[N+](=O)[O-])NCC1(c2cccc3c2OCO3)OCCO1
inactive: [17] 96 % of control | [18] 91 % of control | [19] 96 % of control

CCCC1CC[N-]CC1.CCCC1CC[N-]CC1.CCCC1CC[N-]CC1.CCCC1CC[N-]CC1.[Cl][Rh][Cl]
inactive: [7] 90 % of control

Ic1cccs1
inactive: endpoint: mean survival time, dose: 100.0 mg/kg/injection, schedule: Q01DX001 (ip), vehicle: saline 95 % of control

COc1c(C)c2c(c3c1CC(O)O3)C(=O)OC2 (stereo unspecified)
inactive: [10] 112 % of control | [13] 103 % of control | [16] 106 % of control
